Measurements as given in PubChem BioAssay AID602427 (Sanford-Burnham Center for Chemical Genomics, 2012).
Activity calls are given as the source filed them.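 Rule for the calls: active = EC50 at or below 20 micromolar; inactive = the rest.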

The molecules below were run against Neurotensin receptor type 1 (Homo sapiens) (UniProt P30989) (assay: NTR1 agonists, beta-arrestin recruitment, SAR follow-up, orthogonal assay for NTR1 agonist project, cell-based, luminescence, CHO-K1 NTSR1 PathHunter (AID 602427);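 note: agonist potency for NTR1 activation where higher luminescence means more arrestin recruitment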).
Chain of Neurotensin receptor type 1 (Homo sapiens) (P30989 whole entry, looked up): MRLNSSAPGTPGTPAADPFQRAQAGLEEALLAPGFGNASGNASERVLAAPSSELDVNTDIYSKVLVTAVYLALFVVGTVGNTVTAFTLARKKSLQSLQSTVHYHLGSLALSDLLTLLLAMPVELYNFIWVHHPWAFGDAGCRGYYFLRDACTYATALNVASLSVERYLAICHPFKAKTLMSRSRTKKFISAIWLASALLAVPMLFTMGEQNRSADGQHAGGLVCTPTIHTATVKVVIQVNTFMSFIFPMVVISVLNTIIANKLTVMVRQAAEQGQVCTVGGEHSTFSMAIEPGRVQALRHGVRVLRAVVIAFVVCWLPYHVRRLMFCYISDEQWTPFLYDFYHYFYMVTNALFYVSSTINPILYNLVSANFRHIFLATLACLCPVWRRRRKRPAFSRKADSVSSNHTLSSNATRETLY

Structure (SMILES) | EC50
COc1ccc(C(=O)c2cn(Cc3ccc(Cl)cc3)c3ccccc3c2=O)cc1 | > 33 µM (inactive)
COc1cccc(OC)c1-c1nc(C(=O)N[C@@H](CC(C)C)C(=O)O)cn1-c1cccc2ccccc12 | 6.08 µM
COc1ccc(-c2nnc3c4ccccc4n(Cc4ccncc4)cc2-3)cc1 | > 33 µM (inactive)
c1ccc(N2CCN(c3ncnc4c3cnn4-c3ccccc3)CC2)cc1 | > 33 µM (inactive)
CN(C)S(=O)(=O)c1ccc(-c2csc(N/N=C/c3ccc(C(C)(C)C)cc3)n2)cc1 | > 33 µM (inactive)
CN(C)S(=O)(=O)c1ccc(-c2csc(N/N=C/c3ccco3)n2)cc1 | > 33 µM (inactive)
COc1cccc(OC)c1-c1cc(C(=O)NC2(C(=O)O)C3CC4CC(C3)CC2C4)nn1-c1ccnc2cc(Cl)ccc12 (stereo not given) | > 33 µM (inactive)
CCOC(=O)c1cc(-c2c(OC)cccc2OC)n(-c2ccnc3cc(Cl)ccc23)n1 | > 33 µM (inactive)
Cc1ccc(Cn2cc3c(-c4ccc(F)cc4)nnc-3c3ccccc32)cc1 | > 33 µM (inactive)
COc1ccc(-c2nnc3c4ccccc4n(Cc4ccc(OC(F)(F)F)cc4)cc2-3)cc1 | > 33 µM (inactive)
CC(C)C[C@H](NC(=O)c1cn(-c2ccnc3ccccc23)c(-c2ccccc2)n1)C(=O)O | > 33 µM (inactive)
COc1cccc(OC)c1-c1cc(C(=O)N[C@@H](CC(C)C)C(=O)O)nn1-c1ccnc2cc(Cl)ccc12 | > 33 µM (inactive)
CCN(CC)S(=O)(=O)c1ccc(-c2csc(N/N=C/c3ccco3)n2)cc1 | > 33 µM (inactive)
CCOc1ccc(-c2nnc3c4cc(OC)c(OC)cc4n(Cc4ccc(F)cc4)cc2-3)cc1 | inactive
COc1cccc2c(C(=O)N[C@@H](CC(C)C)C(=O)O)cn(-c3ccnc4cc(Cl)ccc34)c12 | > 33 µM (inactive)
CCn1cc2c(-c3ccc(OC)cc3)nnc-2c2ccccc21 | > 33 µM (inactive)
CC(C)C[C@H](NC(=O)c1cn(-c2ccncc2)c(-c2ccccc2)n1)C(=O)O | > 33 µM (inactive)
COc1cc2c3nnc(-c4ccc(C)c(C)c4)c-3cn(Cc3ccccc3)c2cc1OC | inactive
COc1cc2c3nnc(-c4ccc(F)cc4)c-3cn(Cc3ccc(C)cc3)c2cc1OC | > 33 µM (inactive)
Fc1ccc(Cn2cc3c(-c4ccc(Cl)cc4)nnc-3c3cc4c(cc32)OCO4)cc1 | > 33 µM (inactive)
CCOc1ccc(-c2nnc3c4cc(OC)c(OC)cc4n(Cc4ccccc4)cc2-3)cc1 | inactive
COc1cc2c3nnc(-c4ccc(F)cc4)c-3cn(Cc3ccc(OC(F)(F)F)cc3)c2cc1OC | > 33 µM (inactive)
Cc1ccc(Cn2cc3c(-c4ccc(C)cc4)nnc-3c3cc4c(cc32)OCO4)cc1 | > 33 µM (inactive)

The next lines start with the values.

EC50 | Structure (SMILES)
inactive | COc1ccccc1N1CCN(c2ncnc3c2cnn3-c2ccc(C)cc2C)CC1
> 33 µM (inactive) | COc1cc2c3nnc(-c4ccccc4)c-3cn(Cc3ccccc3)c2cc1OC
> 33 µM (inactive) | COc1cc2nc(C3CCC3)nc(N3CCN(c4ccccc4Cl)CC3)c2cc1OC
> 33 µM (inactive) | CCOc1cc2c(N3CCN(c4ccccc4OC)CC3)nc(-c3ccc(OC)c(OC)c3)nc2cc1OC
> 33 µM (inactive) | COc1ccccc1N1CCN(c2nc(C3CCC3)nc3cc4c(cc23)OCO4)CC1
> 33 µM (inactive) | COc1ccc(Cn2c(SCc3ccccc3C)nc3cc(OC)c(OC)cc3c2=N)cc1Cl
3.8 µM | COc1cc2nc(C3CC3)nc(N3CCN(c4ccccc4OC)CC3)c2cc1OC
> 33 µM (inactive) | Clc1ccc(-n2ncc3c(N4CCN(c5ccccc5)CC4)ncnc32)cc1
> 33 µM (inactive) | Cc1ccc(-n2ncc3c(N4CCN(c5ccccc5F)CC4)ncnc32)c(C)c1
> 33 µM (inactive) | Cc1ccc(-n2ncc3c(N4CCN(c5ccccc5Cl)CC4)ncnc32)c(C)c1
> 33 µM (inactive) | COc1ccc(N2CCN(c3ncnc4c3cnn4-c3ccc(C)cc3C)CC2)cc1
> 33 µM (inactive) | COc1cc2ncc3c(-c4ccc(F)cc4)n[nH]c3c2cc1OC
